The source of these data is article PMC11995724, “Antibiotic target discovery by integrated phenotypic and activity-based profiling of electrophilic fragments” (Cell chemical biology, 2025).

The data set in a line: in vitro. As to conditions: human, hek293t cells.
Method: Mammalian cytotoxicity measurement was performed using Cell Titer-Glo 2.0 Cell Viability Assay (Promega, G9243) according to the manufacturer protocol. In brief, mammalian cells were seeded into 384-well white plates (Greiner, 781080) and incubated at 37°C for one day. Compounds from the Cys-Library were dispensed into the assay plate using epMotion 96. The plates were then incubated at 37°C for two days. An equal volume of Cell Titer-Glo 2.0 reagent was added into each well of the assay plate using epMotion 96 and incubated at 22°C for 10 min, followed by luminescence measurement using a Cytation 5 plate reader (BioTek).
In the case of `CC(Cl)C(=O)N1CCN(C2=NS(=O)(=O)c3ccccc32)CC1` (stereo not drawn) [7-K11, 3-[4-(2-chloropropanoyl)piperazin-1-yl]-1lambda6,2-benzothiazole-1,1-dione], the viability at 48 h, 25 µM was found to be 94.9%. For `C=CC(=O)Nc1sc2c(c1C(=O)c1ccc(C)cc1)CCOC2` [1-J22, N-[3-(4-methylbenzoyl)-4H,5H,7H-thieno[2,3-c]pyran-2-yl]prop-2-enamide] the value was 0.993%; for `C=CC(=O)N(Cc1cn(CC)nc1C)C1CC1` [2-D13, N-cyclopropyl-N-[(1-ethyl-3-methyl-1H-pyrazol-4-yl)methyl]prop-2-enamide], 76.3%. The same measure for `N#CC(=Cc1ccccc1OC(F)F)C(=O)Nc1ccccc1Cl` [9-M21, N-(2-chlorophenyl)-2-cyano-3-[2-(difluoromethoxy)phenyl]prop-2-enamide]: 119%; for `O=C(CCl)N(Cc1ccc(F)cc1)C1CCCCC1` [4-I13, 2-chloro-N-cyclohexyl-N-[(4-fluorophenyl)methyl]acetamide]: 0.726%; for `Cc1nn(C)c(NC(=O)C(C)Cl)c1-c1ccccc1` (stereo not drawn) [7-F21, 2-chloro-N-(1,3-dimethyl-4-phenyl-1H-pyrazol-5-yl)propanamide]: 84.5%.

In the case of `COc1cc(C=C(C#N)C(=O)Nc2ccccn2)ccc1O` [9-P08, 2-cyano-3-(4-hydroxy-3-methoxyphenyl)-N-(pyridin-2-yl)prop-2-enamide], the viability at 48 h, 25 µM turned out to be 124%.

For `N#CC(=Cc1ccc(N2CCCCC2)cc1)C(=O)Nc1nccs1` [8-C04, 2-cyano-3-[4-(piperidin-1-yl)phenyl]-N-(1,3-thiazol-2-yl)prop-2-enamide], the viability at 48 h, 25 µM came out at 97.1%.

With `CC(C)NC(=O)C(C#N)=Cc1cccc(F)c1F` [9-J20, 2-cyano-3-(2,3-difluorophenyl)-N-(propan-2-yl)prop-2-enamide], the viability at 48 h, 25 µM turned out to be 98%. As for `C=CC(=O)Nc1ccc(-n2cnnn2)c(F)c1` [1-I17, N-[3-fluoro-4-(1H-1,2,3,4-tetrazol-1-yl)phenyl]prop-2-enamide], the viability at 48 h, 25 µM stood at 39.9%. For `N#CC(=Cc1cccc(O)c1)C(=O)NCCc1ccccc1` [8-N03, 2-cyano-3-(3-hydroxyphenyl)-N-(2-phenylethyl)prop-2-enamide] the value was 101%; for `CC(Cl)C(=O)NCCc1nnc2n1CCCCC2` (stereo not drawn) [7-D09, 2-chloro-N-(2-{5H,6H,7H,8H,9H-[1,2,4]triazolo[4,3-a]azepin-3-yl}ethyl)propanamide], 101%; for `C=CC(=O)NC(Cn1cnc2ccccc21)c1ccc(F)cc1` (stereo not drawn) [2-C11, N-[2-(1H-1,3-benzodiazol-1-yl)-1-(4-fluorophenyl)ethyl]prop-2-enamide], 90.5%. The same measure for `CCN1C(=O)C(=Cc2ccc(-c3ccc(F)cc3)o2)C(C)=C(C#N)C1=O` [9-P09, 1-ethyl-5-{[5-(4-fluorophenyl)furan-2-yl]methylidene}-4-methyl-2,6-dioxo-1,2,5,6-tetrahydropyridine-3-carbonitrile]: 127%; for `CC(=O)Nc1ccc(C=C(C#N)C(=O)NC2CCCCC2)cc1` [8-N16, 2-cyano-N-cyclohexyl-3-(4-acetamidophenyl)prop-2-enamide]: 95.6%. For `C=CC(=O)N(Cc1c(C)cccc1C)C1CCc2nc(C)nn2C1` (stereo not drawn) [1-B11, N-[(2,6-dimethylphenyl)methyl]-N-{2-methyl-5H,6H,7H,8H-[1,2,4]triazolo[1,5-a]pyridin-6-yl}prop-2-enamide] the value was 114%; for `N#CC(=Cc1c(Cl)cccc1Cl)C(=O)NCCc1ccccc1` [8-B14, 2-cyano-3-(2,6-dichlorophenyl)-N-(2-phenylethyl)prop-2-enamide], 2%.

For the molecule `O=C(CCl)Nc1c(Cl)cc(Cl)cc1Cl` [5-B16, 2-chloro-N-(2,4,6-trichlorophenyl)acetamide], the viability at 48 h, 25 µM was 123%.

As usually defined, the viability is a read-out of living cells in per cent, often relative to untreated cells.
